Reference: patent US20250221988A1 (Cullgen (Shanghai), Inc., priority 2022, published 2025)
Read-outs that look alike come from different tables or passages of the source.

Legend:
MV4;11 cells = assay: Cell viability assay (CellTiter-Glo) in MV4;11 cells; type: cell-based; conditions: read-out: MV4
Procedure, shortened: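 5000 cells/well in RPMI 1640 or DMEM with 10% FBS, treated with 8- or 12-point 3-fold compound dilutions, with or without gilteritinib (10 nM for MV4;11, 20 nM for MOLM-13). Viability by CellTiter-Glo after three days; IC50 by nonlinear least-squares regression.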

MOLM-13 cells = assay: Cell viability assay (CellTiter-Glo) in MOLM-13 cells; type: cell-based
[1] = MV4;11 cells, with 10 nM gilteritinib, three days, 11 IC50 (nM) + 10 nM Gil
[2] = Homo sapiens, 72 h, MOLM-13 cells, compound alone, three days, read-out: MOLM-13 IC50
[3] = MOLM-13 cells, with gilteritinib, three days, read-out: MOLM-13 IC50 (nM) + 10 nM Gil
[4] = Homo sapiens, MV4-11, 72 h, MV4;11 cells, compound alone, three days, 11 IC50
[5] = Homo sapiens, MV4-11, 72 h, 11 IC50 (nM)
[6] = 11 IC50 (nM) + 10 nM Gil, MV4;11 cells, with 10 nM gilteritinib, three days
[7] = Homo sapiens, MOLM-13, 72 h, read-out: MOLM-13 IC50 (nM)
[8] = read-out: MOLM-13 IC50 (nM) + 10 nM Gil, MOLM-13 cells, with gilteritinib, three days

SMILES: Cc1nc(-c2cn(C3CC(O)(CNc4ccc5c(c4)C(=O)N(C4CCC(=O)NC4=O)C5=O)C3)nc2C2CC2)ccc1F (stereo not drawn) [GS-759, 5-(((Cis-3-(3-cyclopropyl-4-(5-fluoro-6-methylpyridin-2-yl)-1H-pyrazol-1-yl)-1-hydroxycyclobutyl)methyl)amino)-2-(2,6-dioxopiperidin-3-yl)isoindoline-1,3-dione]
- IC50 (MV4;11 cells; MV4;11 cells, compound alone, three days, 11 IC50): 100 to 1000 nM
- IC50 (MV4;11 cells; [1]): 10 to 100 nM
- IC50 (MOLM-13 cells; [2]): > 1000 nM
- IC50 (MOLM-13 cells; [3]): 10 to 100 nM

SMILES: O=C1CCC(N2C(=O)c3ccc(NCC4CC(n5cc(-c6cnc7cc(C8CNC8)ccc7n6)c(C6CC6)n5)C4)cc3C2=O)C(=O)N1 (stereo not shown) [GS-746]
- IC50 (MV4;11 cells; [4]): 100 to 1000 nM
- IC50 (MV4;11 cells; [1]): 10 to 100 nM
- IC50 (MOLM-13 cells; [2]): > 1000 nM
- IC50 (MOLM-13 cells; [3]): 10 to 100 nM

SMILES: Cc1nc(-c2cn([C@H]3C[C@H](C#Cc4ccc5c(c4)CN(C4CCC(=O)NC4=O)C5=O)C3)nc2C2CC2)ccc1F (stereo partly drawn) [GS-754, 3-(5-((Trans-3-(3-cyclopropyl-4-(5-fluoro-6-methylpyridin-2-yl)-1H-pyrazol-1-yl)cyclobutyl)ethynyl)-1-oxoisoindolin-2-yl)piperidine-2,6-dione]
- IC50 (MV4;11 cells; [4]): > 1000 nM
- IC50 (MV4;11 cells; [1]): 100 to 1000 nM
- IC50 (MOLM-13 cells; [2]): > 1000 nM
- IC50 (MOLM-13 cells; [3]): 100 to 1000 nM

SMILES: Cn1nccc1Nc1cn([C@H]2C[C@H](CNc3ccc4c(c3)C(=O)N(C3CCC(=O)NC3=O)C4=O)C2)nc1C1CC1 (stereo partly drawn) [GS-784, 5-(((Trans-3-(3-cyclopropyl-4-((1-methyl-1H-pyrazol-5-yl)amino)-1H-pyrazol-1-yl)cyclobutyl)methyl)amino)-2-(2,6-dioxopiperidin-3-yl)isoindoline-1,3-dione]
- IC50 (MV4;11 cells; [4]): 100 to 1000 nM
- IC50 (MV4;11 cells; [1]): 10 to 100 nM
- IC50 (MOLM-13 cells; [2]): 100 to 1000 nM
- IC50 (MOLM-13 cells; [3]): 100 to 1000 nM

SMILES: O=C1CCC(N2C(=O)c3ccc(NC[C@H]4C[C@H](n5cc(-c6cc7c(cn6)cnn7CC(F)(F)F)c(C6CC6)n5)C4)cc3C2=O)C(=O)N1 (relative stereo) [GS-704, 5-(((Trans-3-(3-cyclopropyl-4-(1-(2,2,2-trifluoroethyl)-1H-pyrazolo[4,3-c]pyridin-6-yl)-1H-pyrazol-1-yl)cyclobutyl)methyl)amino)-2-(2,6-dioxopiperidin-3-yl)isoindoline-1,3-dione]
- IC50 (MV4;11 cells; [4]): 10 to 100 nM
- IC50 (MV4;11 cells; [1]): < 10 nM
- IC50 (MOLM-13 cells; [2]): 10 to 100 nM
- IC50 (MOLM-13 cells; [3]): < 10 nM

SMILES: CC(C)n1ccc2c(-c3cn([C@H]4C[C@H](CNc5ccc6c(c5)C(=O)N(C5CCC(=O)NC5=O)C6=O)C4)nc3C3CC3)ncc(F)c21 (stereo partly drawn) [GS-769, 5-(((Trans-3-(3-cyclopropyl-4-(7-fluoro-1-isopropyl-1H-pyrrolo[3,2-c]pyridin-4-yl)-1H-pyrazol-1-yl)cyclobutyl)methyl)amino)-2-(2,6-dioxopiperidin-3-yl)isoindoline-1,3-dione]
- IC50 (MV4;11 cells; [4]): < 10 nM
- IC50 (MV4;11 cells; [1]): < 10 nM
- IC50 (MOLM-13 cells; [2]): < 10 nM
- IC50 (MOLM-13 cells; [3]): < 10 nM

SMILES: CN(C)c1nc(-c2cn([C@H]3C[C@H](CNc4ccc5c(c4)C(=O)N(C4CCC(=O)NC4=O)C5=O)C3)nc2C2CC2)ccc1F (stereo partly drawn) [GS-707, 5-(((Trans-3-(3-cyclopropyl-4-(6-(dimethylamino)-5-fluoropyridin-2-yl)-1H-pyrazol-1-yl)cyclobutyl)methyl)amino)-2-(2,6-dioxopiperidin-3-yl)isoindoline-1,3-dione]
- IC50 (MV4;11 cells; [5]): 10 to 100 nM
- IC50 (MV4;11 cells; [6]): < 10 nM
- IC50 (MOLM-13 cells; [7]): 10 to 100 nM
- sensitization of AML cells to GSPT1 degraders by FLT3 inhibition (MOLM-13 cells; MOLM-13 cells, with or without 20 nM gilteritinib, 3 days): FLT3 inhibition sensitizes AML cells
- IC50 (MOLM-13 cells; [8]): 10 to 100 nM

SMILES: O=C1CCC(N2C(=O)c3ccc(NC[C@H]4C[C@H](n5cc(-c6ncc(F)cc6N6CCNCC6)c(C6CC6)n5)C4)cc3C2=O)C(=O)N1 (stereo partly drawn) [GS-683, 5-(((Trans-3-(3-cyclopropyl-4-(5-fluoro-3-(piperazin-1-yl)pyridin-2-yl)-1H-pyrazol-1-yl)cyclobutyl)methyl)amino)-2-(2,6-dioxopiperidin-3-yl)isoindoline-1,3-dione]
- IC50 (MV4;11 cells; [4]): > 1000 nM
- IC50 (MOLM-13 cells; [2]): > 1000 nM

SMILES: O=C1CCC(N2C(=O)c3ccc(NC[C@H]4C[C@H](n5cc(-n6ncc7cccnc76)c(C6CC6)n5)C4)cc3C2=O)C(=O)N1 (stereo partly drawn) [GS-777, 5-(((Trans-3-(3-cyclopropyl-4-(1H-pyrazolo[3,4-b]pyridin-1-yl)-1H-pyrazol-1-yl)cyclobutyl)methyl)amino)-2-(2,6-dioxopiperidin-3-yl)isoindoline-1,3-dione]
- IC50 (MV4;11 cells; [4]): < 10 nM
- IC50 (MV4;11 cells; [1]): < 10 nM
- IC50 (MOLM-13 cells; [2]): 10 to 100 nM
- IC50 (MOLM-13 cells; [3]): < 10 nM

SMILES: O=C1CCC(N2C(=O)c3ccc(NC[C@H]4C[C@H](n5cc(Nc6ccccc6)c(C6CC6)n5)C4)cc3C2=O)C(=O)N1 (stereo partly drawn) [GS-739, 5-(((Trans-3-(3-Cyclopropyl-4-(phenylamino)-1H-pyrazol-1-yl)cyclobutyl)methyl)amino)-2-(2,6-dioxopiperidin-3-yl)isoindoline-1,3-dione]
- IC50 (MV4;11 cells; [5]): 10 to 100 nM
- IC50 (MV4;11 cells; [6]): < 10 nM
- IC50 (MOLM-13 cells; [7]): 10 to 100 nM
- IC50 (MOLM-13 cells; [8]): < 10 nM

SMILES: O=C1CCC(N2C(=O)c3ccc(NC[C@H]4C[C@H](n5cc(-c6ncccc6[C@H]6C[C@@H](O)C6)c(C6CC6)n5)C4)cc3C2=O)C(=O)N1 (stereo partly shown) [GS-771]
- IC50 (MV4;11 cells; [4]): 10 to 100 nM
- IC50 (MV4;11 cells; [1]): < 10 nM
- IC50 (MOLM-13 cells; [2]): 10 to 100 nM
- IC50 (MOLM-13 cells; [3]): 10 to 100 nM

SMILES: CC(C)n1ccc2ccc(-c3cn([C@H]4C[C@H](CNc5ccc6c(c5)C(=O)N(C5CCC(=O)NC5=O)C6=O)C4)nc3C3CC3)nc21 (stereo partly drawn) [GS-737, 5-(((Trans-3-(3-cyclopropyl-4-(1-isopropyl-1H-pyrrolo[2,3-b]pyridin-6-yl)-1H-pyrazol-1-yl)cyclobutyl)methyl)amino)-2-(2,6-dioxopiperidin-3-yl)isoindoline-1,3-dione]
- IC50 (MV4;11 cells; [5]): 10 to 100 nM
- IC50 (MV4;11 cells; [6]): 10 to 100 nM
- IC50 (MOLM-13 cells; [7]): 100 to 1000 nM
- IC50 (MOLM-13 cells; [8]): 10 to 100 nM

SMILES: Cc1ccnc2c1c(C1CC1)nn2[C@H]1C[C@H](CNc2ccc3c(c2)C(=O)N(C2CCC(=O)NC2=O)C3=O)C1 (stereo partly drawn) [GS-679, 5-(((Trans-3-(3-cyclopropyl-4-methyl-1H-pyrazolo[3,4-b]pyridin-1-yl)cyclobutyl)methyl)amino)-2-(2,6-dioxopiperidin-3-yl)isoindoline-1,3-dione]
- IC50 (MV4;11 cells; [4]): > 1000 nM
- IC50 (MV4;11 cells; [1]): 100 to 1000 nM
- IC50 (MOLM-13 cells; [2]): > 1000 nM
- IC50 (MOLM-13 cells; [3]): 100 to 1000 nM

SMILES: O=C1CCC(N2C(=O)c3ccc(NC[C@H]4C[C@H](n5cc(C6CCC(O)CC6)c(C6CC6)n5)C4)cc3C2=O)C(=O)N1 (stereo partly drawn) [GS-701, 5-(((Trans-3-(3-cyclopropyl-4-(4-hydroxycyclohexyl)-1H-pyrazol-1-yl)cyclobutyl)methyl)amino)-2-(2,6-dioxopiperidin-3-yl)isoindoline-1,3-dione]
- IC50 (MV4;11 cells; [4]): 10 to 100 nM
- IC50 (MV4;11 cells; [1]): 10 to 100 nM
- IC50 (MOLM-13 cells; [2]): 100 to 1000 nM
- IC50 (MOLM-13 cells; [3]): 10 to 100 nM

SMILES: O=C1CCC(N2C(=O)c3ccc(NC[C@H]4C[C@H](n5nc(C6CC6)c6nccnc65)C4)cc3C2=O)C(=O)N1 (stereo partly drawn) [GS-648, 5-(((Trans-3-(3-cyclopropyl-1H-pyrazolo[3,4-b]pyrazin-1-yl)cyclobutyl)methyl)amino)-2-(2,6-dioxopiperidin-3-yl)isoindoline-1,3-dione]
- IC50 (MV4;11 cells; [4]): > 1000 nM
- IC50 (MOLM-13 cells; [2]): > 1000 nM
- IC50 (MOLM-13 cells; [3]): 100 to 1000 nM

SMILES: O=C1CCC(N2C(=O)c3ccc(NC[C@H]4C[C@H](n5cc(-n6ccc7cccnc76)c(C6CC6)n5)C4)cc3C2=O)C(=O)N1 (stereo partly drawn) [GS-751, 5-(((Trans-3-(3-cyclopropyl-4-(1H-pyrrolo[2,3-b]pyridin-1-yl)-1H-pyrazol-1-yl)cyclobutyl)methyl)amino)-2-(2,6-dioxopiperidin-3-yl)isoindoline-1,3-dione]
- IC50 (MV4;11 cells; [4]): < 10 nM
- IC50 (MV4;11 cells; [1]): < 10 nM
- IC50 (MOLM-13 cells; [2]): 10 to 100 nM
- IC50 (MOLM-13 cells; [3]): < 10 nM

SMILES: Cc1nc(-c2cn([C@H]3C[C@H](CNc4ccc5c(c4)CN(C4CCC(=O)NC4=O)C5=O)C3)nc2C(F)F)ccc1F (stereo partly drawn) [GS-677, 3-(5-(((Trans-3-(3-(difluoromethyl)-4-(5-fluoro-6-methylpyridin-2-yl)-1H-pyrazol-1-yl)cyclobutyl)methyl)amino)-1-oxoisoindolin-2-yl)piperidine-2,6-dione]
- IC50 (MV4;11 cells; [4]): < 10 nM
- IC50 (MV4;11 cells; [1]): < 10 nM
- IC50 (MOLM-13 cells; [2]): < 10 nM
- IC50 (MOLM-13 cells; [3]): < 10 nM

SMILES: Cc1cc(F)cnc1-c1cn([C@H]2C[C@H](CNc3ccc4c(c3)C(=O)N(C3CCC(=O)NC3=O)C4=O)C2)nc1C1CC1 (stereo partly drawn) [GS-717, 5-(((Trans-3-(3-cyclopropyl-4-(5-fluoro-3-methylpyridin-2-yl)-1H-pyrazol-1-yl)cyclobutyl)methyl)amino)-2-(2,6-dioxopiperidin-3-yl)isoindoline-1,3-dione]
- IC50 (MV4;11 cells; [4]): < 10 nM
- IC50 (MV4;11 cells; [1]): < 10 nM
- IC50 (MOLM-13 cells; [2]): 10 to 100 nM
- IC50 (MOLM-13 cells; [3]): < 10 nM

SMILES: Cn1cc2c(-c3cn([C@H]4C[C@H](CNc5ccc6c(c5)C(=O)N(C5CCC(=O)NC5=O)C6=O)C4)nc3C3CC3)ncc(F)c2n1 (stereo partly drawn) [GS-790, 5-(((Trans-3-(3-cyclopropyl-4-(7-fluoro-2-methyl-2H-pyrazolo[4,3-c]pyridin-4-yl)-1H-pyrazol-1-yl)cyclobutyl)methyl)amino)-2-(2,6-dioxopiperidin-3-yl)isoindoline-1,3-dione]
- IC50 (MV4;11 cells; [4]): < 10 nM
- IC50 (MV4;11 cells; [1]): < 10 nM
- IC50 (MOLM-13 cells; [2]): 10 to 100 nM
- IC50 (MOLM-13 cells; [3]): < 10 nM

SMILES: O=C1CCC(N2C(=O)c3ccc(NC[C@H]4C[C@H](n5cc(-c6ncccc6C6CNC6)c(C6CC6)n5)C4)cc3C2=O)C(=O)N1 (stereo partly drawn) [GS-745, 5-(((Trans-3-(4-(3-(azetidin-3-yl)pyridin-2-yl)-3-cyclopropyl-1H-pyrazol-1-yl)cyclobutyl)methyl)amino)-2-(2,6-dioxopiperidin-3-yl)isoindoline-1,3-dione]
- IC50 (MV4;11 cells; [4]): > 1000 nM
- IC50 (MOLM-13 cells; [2]): > 1000 nM
